# pEC50: −log10 of the molar value. Where two headings read alike, the source gives them in different places.
# System: HBV
# Test: Viral production from HepAD38 cells, viral load by qPCR of HBV core sequence
# Format: cell-based
# Details: 5 days, supernatant HBV DNA by qPCR, read-out: Viral Load EC50 Activity range
# Procedure, shortened: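 HepAD38 cells in tetracycline-free medium with 2% FBS, 50,000 cells/well, treated 5 days at 37° C. with compound from 10 μM top concentration (1% DMSO final). Supernatant HBV DNA measured by TaqMan qPCR of core sequence against standards, versus DMSO wells; viability by CellTiter-Glo; EC50/CC50 by four-parameter fit.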
# [1] = Hepatitis B virus, HePAD38, 120 h
Compound,pEC50 [1],pEC50
"COc1cc(C(=O)NCCN)ccc1C1CCC(c2nn(C)c(N)c2C(=O)Nc2ccc(F)c(Cl)c2)C1 (centres unmarked) [AIA-388, 5-Amino-3-(3-(4-((2-aminoethyl)carbamoyl)-2-methoxyphenyl)cyclopentyl)-N-(3-chloro-4-fluorophenyl)-1-methyl-1H-pyrazole-4-carboxamide]",6.30 to 7.00,
Cn1cc(C(=O)Nc2ccc(F)c(Cl)c2)c(C2CC3CC(=O)CC3C2)n1 (centres unmarked) [AIA-394],,5.00 to 6.30
Cn1cc(C(=O)Nc2ccc(F)c(Cl)c2)c(C2CC3CC(O)(CS(C)(=O)=O)CC3C2)n1 (centres unmarked) [AIA-397],,5.00 to 6.30
"Cn1nc(C2CCC(c3cccnc3)C2)c(C(=O)Nc2ccc(F)c(Cl)c2)c1N (centres unmarked) [CP-AIA-270, 5-Amino-N-(3-chloro-4-fluorophenyl)-1-methyl-3-(3-(pyridin-3-yl)cyclopentyl)-1H-pyrazole-4-carboxamide]",> 7.00,
Cn1nc(C2CC3CC4(CNC(=O)C4)CC3C2)c(C(=O)Nc2ccc(F)c(Cl)c2)c1N (centres unmarked) [HBV-AIA-039],,> 7.00

# Reference: US11560370B1, “5-membered heteroaryl carboxamide compounds for treatment of HBV” (Assembly Biosciences, Inc., priority 2018, dated 2023)
